Experiments:
[1] = Absorption and fluorescence spectroscopy / fluorescence quantum yield; assay type: physicochemical; conditions: for Emission Peak / Excitation Peak / Quantum Yield: acetonitrile
Protocol: Absorption and fluorescence spectroscopy. Stock solutions of C3d-binding compounds (in DMSO) were diluted in spectroscopic grade acetonitrile (Fisher Scientific). The concentration of each sample was adjusted such that the absorption at the excitation wavelength was below 0.2, after correcting with blank acetonitrile solutions containing the same concentration of DMSO as the measured samples. The UV/visible absorption spectra (260-700 nm) were recorded on a JASCO V-670 spectrophotometer (Tokyo, Japan), using quartz cuvettes (1.0 cm path length, 3.0 ml total volume). The emission spectra were collected with a FluoroLog-3 spectrofluorometer (Horiba-Jobin-Yvon, Edison, N.J., USA). All samples were purged with argon prior to the measurements and all measurements were performed at room temperature.
Fluorescence quantum yield measurements. Fluorescence quantum yield values for the small molecules were calculated using one or more standard quantum yield fluorophores. Values were calculated according to Eq. 1.
where R and S subscripts denote reference compound and sample, respectively, Φfl is quantum yield, In is the total integrated fluorescence spectrum intensity obtained from integration of the emission spectra, An is sample absorbance at the excitation wavelength, and nn is the refractive index of the solvent. Reference compounds used for calculation included naphthalene (ΦR=0.23 for EtOH), anthracene (ΦR=0.27 for EtOH), and coumarin 1 (ΦR=0.73 for EtOH). Standard molecule quantum yield measurements were performed in acetonitrile, and solvent-dependent measurements were performed in spectroscopic grade methanol, ethanol, 1-propanol, 1-butanol, ethylene glycol, glycerol, and phosphate buffered saline.
To test the fluorescence dependence on the media viscosity, a protic media was used, i.e., an aqueous buffer and six alcohols with widely varying viscosities.

[2] = target: T1, C3d (Homo sapiens, UniProt P01024); experiment: Microscale thermophoresis direct binding; conditions: 10 nM NT647-labeled C3d, MST buffer with 5% DMSO
T1 construct: Further cleavage events yield C3d (the terminal cleavage product of C3); purchased Complement Technology, Inc
Protocol: Microscale thermophoresis. Direct binding of molecules was assayed using a Monolith NT.115 (NanoTemper Technologies GmbH). Purified C3d (Complement Technology, Inc.) was labeled with NT647 dye using the kit from NanoTemper Technologies, and dissolved to 10 nM in MST buffer (50 mM Tris-HCl, 150 mM NaCl, 10 mM MgCl2, 0.05% Tween 20) containing 5% DMSO. A dilution series of each molecule was prepared in MST buffer containing 5% DMSO, and preincubated with 10 nM NT647-labeled C3d for 10 minutes at room temperature in the dark. Samples were loaded into hydrophilic capillary tubes, and measurements were obtained. For each molecule, reported KD values and binding curves represent results from three independent experiments.
Experimental evaluation of C3d binding. In order to validate the hits from vHTS, binding of 49 selected compounds were measured using microscale thermophoresis. All molecules were tested in a concentration-dependent manner; starting at a concentration of 200 μM (most molecules were poorly soluble in aqueous solution above this concentration). Ten molecules were identified that bound to C3d, with binding affinities (KD) ranging between 25-500 μM. The molecular structures and binding curves for top molecules are shown in FIG. 6, and other binding compounds are shown in FIG. 9.
Microscale Thermophoresis: Direct binding of a small number of selected molecules was tested using microscale thermophoresis. […] We used Efb, a protein secreted from Staphylococcus aureus that binds to C3d, as a positive control for binding (KD=3 nM) (see FIG. 11).

[3] = target: T2, C3d-CR2 interaction (Homo sapiens, UniProt P01024); experiment: Competitive binding ELISA, C3d-CR2; conditions: plates coated with CR2
T2 construct: Further cleavage events yield C3d (the terminal cleavage product of C3)
Protocol: (§1) Competitive binding ELISA: 50 molecules selected from virtual screening were tested for competitive binding against C3d and its interactions with endogenous protein CR2 and bacterial protein Ecb (homolog to Efb) from Staphylococcus aureus. ELISA plates were coated with CR2 or Ecb for 1 hour at 37° C. Plates were washed and blocked, then incubated with serial dilutions of C3d, with and without test molecules. Plates were incubated with a mouse monoclonal antibody against C3d, followed by a horseradish peroxidase-labeled anti-mouse IgG antibody. The amount of labeled antibody (and in turn, C3d) bound was detected via reaction with a substrate solution, followed by spectrophotometric measurement.

[4] = target: T3, C3d-Ecb interaction (Homo sapiens, UniProt P01024); experiment: Competitive binding ELISA, C3d-Ecb; design: species or system Staphylococcus aureus; conditions: plates coated with Ecb
T3 construct: Further cleavage events yield C3d (the terminal cleavage product of C3)
Protocol: as §1

[5] = target: T1, C3d; experiment: Fluorescence of molecules in the presence of C3d; conditions: subsaturating concentrations of C3d
Protocol: The fluorescence properties of topperforming molecules in the presence of C3d were also evaluated. Often, when small molecule fluorophores bind to their targets, fluorescence may be quenched, an undesirable property for potential diagnostic molecules. […] Remarkably, Mol4 underwent drastic fluorescence enhancement in the presence of C3d, with up to 5-fold higher fluorescence at subsaturating concentrations of C3d (FIG. 14).

[6] = for EtOH; standard fluorophore; cited from earlier work
[7] = aqueous buffer and six alcohols

T3 sequence (P01024 1002-1303 limits assumed): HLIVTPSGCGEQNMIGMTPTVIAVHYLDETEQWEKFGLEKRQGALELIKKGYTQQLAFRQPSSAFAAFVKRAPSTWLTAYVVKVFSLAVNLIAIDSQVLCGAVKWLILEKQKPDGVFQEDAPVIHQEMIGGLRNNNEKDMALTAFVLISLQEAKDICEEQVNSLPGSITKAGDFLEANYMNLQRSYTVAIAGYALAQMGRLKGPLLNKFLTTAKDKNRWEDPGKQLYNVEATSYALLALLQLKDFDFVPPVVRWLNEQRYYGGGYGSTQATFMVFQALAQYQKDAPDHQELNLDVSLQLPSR
T2 sequence (P01024 1002-1303 limits assumed): as above
T1 sequence (P01024 1002-1303 limits assumed): as above

Emission Peak [1] [nm]	Excitation Peak [1]	Quantum Yield [1]	Kd [2] [µM]	Compound	also measured
380	315 nm	0.560	29 ± 8	O=C(Nc1cccc(-c2cc3ccccc3[nH]2)c1)C1CCN(C(=O)C2CC23CCC3)CC1 (stereo not shown) [Mol 4]	–
405	310 nm	0.001	45 ± 13	O=C(Nc1nc2ccccc2[nH]1)c1ccc(CNS(=O)(=O)c2ccc(F)c(F)c2F)cc1 [Mol 11]	–
385	310 nm	0.002	27 ± 5	Cc1c(-c2ccc(F)cc2)[nH]c2ccc(CNC(=O)c3cc(=O)[nH]c(=O)[nH]3)cc12 [Mol 16]	–
500	390/405	0.984	116 ± 41	C[C@@H](Oc1ccc2[nH]c3ccccc3c(=O)c2c1)C(=O)NC(=O)NC12CC3CC(CC(C3)C1)C2 [Mol 17]	–
425	320 nm	0.017	132 ± 28	O=C(Cc1cccc(F)c1)Nc1ccc(N2CCC(NCc3ccc4ncccc4c3)CC2)cc1 [Mol 36]	–
390	335 nm	0.011	45 ± 15	O=C(NC1CCCc2ccccc21)c1ccc(CN2CCN(CC=Cc3ccccc3)CC2)[nH]c1=O (stereo not shown) [Mol 42]	–
–	–	–	77	O=C(Nc1ccc(C(=O)N2CCN(Cc3nc4sc5c(c4c(=O)[nH]3)CCCC5)CC2)s1)C1CC1 [Mol 50]	–
–	–	–	–	O=C(Nc1cccc(-c2cc3ccccc3[nH]2)c1)C1CCN(C(=O)C2CC23CCC3)CC1 (stereo not shown) [Mol B4]	fluorescence enhancement in the presence of C3d [5]: up to 5 fold
–	–	–	–	Cc1c(-c2ccc(F)cc2)[nH]c2ccc(CNC(=O)c3cc(=O)[nH]c(=O)[nH]3)cc12 [Mol B16]	dependence of Φfl on solvent polarity [1, 7]: does not exhibit any dependence on solvent polarity; emission quantum yield at high media viscosity ([1]; media viscosity about 1,000 cP, protic media): ~0.015; emission quantum yield at low media viscosity ([1]; media viscosity about <1 cP, protic media): about 0.002
–	–	–	–	C[C@@H](Oc1ccc2[nH]c3ccccc3c(=O)c2c1)C(=O)NC(=O)NC12CC3CC(CC(C3)C1)C2 [Mol B17]	Quantum Yield ([1]; listed as Mol17): close to unity
–	–	–	–	CC1Sc2ccc(C(=O)NNC(=O)c3cc(-c4ccco4)nc4ccccc34)cc2NC1=O (stereo not shown) [Mol B22]	inhibition of C3d-CR2 interaction [3]: inhibit; inhibition of C3d-Ecb interaction [4]: inhibit
–	–	–	–	O=C(NC1CCCc2ccccc21)c1ccc(CN2CCN(CC=Cc3ccccc3)CC2)[nH]c1=O (stereo not shown) [Mol B42]	dependence of Φfl on media viscosity [1, 7]: does not manifest viscosity dependence; dependence of Φfl on solvent polarity [1, 7]: about an order of magnitude increase in Φfl
–	–	–	–	Cc1ccc(NC(=O)Cn2nnc(C(=O)Nc3ccc(C)cc3C)c2N)c(C)c1 [Mol B47]	inhibition of C3d-CR2 interaction [3]: only inhibits the C3d-Ecb interaction; inhibition of C3d-Ecb interaction [4]: inhibits
–	–	–	–	c1ccc2cc3ccccc3cc2c1 [anthracene]	reference quantum yield ΦR [6]: 0.27
–	–	–	–	CCN(CC)c1ccc2c(C)cc(=O)oc2c1 [coumarin 1]	reference quantum yield ΦR [6]: 0.73
–	–	–	–	c1ccc2ccccc2c1 [naphthalene]	reference quantum yield ΦR [6]: 0.23

Compound	Emission Peak [1] [nm]	Excitation Peak [1]	Quantum Yield [1]	Kd [2] [µM]	also measured
CC1Sc2ccc(C(=O)NNC(=O)c3cc(-c4ccco4)nc4ccccc34)cc2NC1=O (stereo not shown) [Mol 22]	455	355 nm	0.044	183 ± 81	–
Cc1ccc(NC(=O)CSc2nnc3ccc(C(=O)Nc4cccc(F)c4)cn23)c(C)c1 [Mol 35]	460	275 nm	0.001	417 ± 171	inhibition of C3d-CR2 interaction [3]: inhibit; inhibition of C3d-Ecb interaction [4]: inhibit
